Measured values reported in publication PMC8986778, “Citrullination of glucokinase is linked to autoimmune diabetes” (Nature Communications, 2022).
Non-standard residues stand in square brackets, D forms with d. Residues, ends and D or L forms follow the SMILES beside them. Cit = NC(=O)NCCC[C@H](N)C(=O)O

What follows are compounds tested against T1, DR0401 protein (Homo sapiens, UniProt P01903+P01911, A100K/A169T/F76Y/I96L/K127E/L162R/M171V/N62H/P40V/Q125Y/R42H/S133A/S149N/S66Y/V115G/V209L/W38E) (assay: DR0401 peptide binding competition assay). Settings: Supplementary Table 2; competition with biotin-HA306-318 0.02 μM; read-out: IC50 (Binding of Predicted Glucokinase Peptides to DR04:01).
T1 construct: made in house; host or cells: insect cell cultures
Work on `CC[C@H](C)[C@H](NC(=O)[C@H](CS)NC(=O)[C@H](CCC(=O)O)NC(=O)[C@H](CO)NC(=O)[C@@H](NC(=O)[C@H](Cc1ccc(O)cc1)NC(=O)[C@H](CC(=O)O)NC(=O)[C@H](Cc1ccccc1)NC(=O)[C@H](CC(C)C)NC(=O)[C@H](CCSC)NC(=O)[C@@H](N)CCC(=O)O)[C@@H](C)CC)C(=O)N[C@@H](CO)C(=O)N[C@@H](CC(=O)O)C(=O)N[C@@H](Cc1ccccc1)C(=O)N[C@@H](CC(C)C)C(=O)O` [GK 120-134] (H-EMLFDYISECISDFL-OH) yielded an IC50 of 40.1 µM. `CC(C)[C@H](NC(=O)[C@H](CCC(N)=O)NC(=O)[C@H](CO)NC(=O)[C@@H](NC(=O)[C@H](Cc1ccccc1)NC(=O)[C@H](CCCNC(N)=O)NC(=O)[C@@H](NC(=O)[C@@H](N)CCC(=O)O)[C@@H](C)O)C(C)C)C(=O)N[C@@H](CCC(=O)O)C(=O)N[C@@H](CO)C(=O)N[C@@H](CC(=O)O)C(=O)N[C@H](C(=O)NCC(=O)N[C@@H](CC(=O)O)C(=O)O)[C@@H](C)O` [GK 331-344] (H-ET[Cit]FVSQVESDTGD-OH; N-terminus and C-terminus assumed) showed an IC50 greater than 50 µM. In the case of `CC(C)C[C@H](NC(=O)[C@H](CCCCN)NC(=O)[C@H](Cc1ccc(O)cc1)NC(=O)[C@@H](NC(=O)[C@H](CO)NC(=O)CN)C(C)C)C(=O)N[C@@H](Cc1c[nH]cn1)C(=O)N1CCC[C@H]1C(=O)N[C@@H](CO)C(=O)N[C@@H](Cc1ccccc1)C(=O)N[C@@H](CCCCN)C(=O)N[C@@H](CCC(=O)O)C(=O)N[C@@H](CCCNC(N)=O)C(=O)N[C@@H](Cc1ccccc1)C(=O)N[C@@H](Cc1c[nH]cn1)C(=O)O` [GK 410-424] (H-GSVYKLHPSFKE[Cit]FH-OH; N-terminus and C-terminus assumed), the IC50 is reported as greater than 50 µM. `CSCC[C@H](NC(=O)[C@H](Cc1ccc(O)cc1)NC(=O)[C@H](CS)NC(=O)[C@H](C)NC(=O)[C@@H](N)CC(N)=O)C(=O)N[C@@H](CCC(=O)O)C(=O)N[C@@H](CCC(=O)O)C(=O)N[C@@H](CCSC)C(=O)N[C@@H](CCC(N)=O)C(=O)N[C@@H](CC(N)=O)C(=O)N[C@H](C(=O)N[C@@H](CCC(=O)O)C(=O)N[C@@H](CC(C)C)C(=O)N[C@H](C(=O)N[C@@H](CCC(=O)O)C(=O)O)C(C)C)C(C)C` [GK 231-245] (H-NACYMEEMQNVELVE-OH) was tested, and the IC50 was 0.03 µM. `CC[C@H](C)[C@H](NC(=O)[C@@H](N)CC(=O)O)C(=O)N[C@H](C(=O)N[C@@H](CCCNC(N)=O)C(=O)N[C@@H](CCCNC(=N)N)C(=O)N[C@@H](C)C(=O)N[C@@H](CS)C(=O)N[C@@H](CCC(=O)O)C(=O)N[C@@H](CO)C(=O)N[C@H](C(=O)N[C@@H](CO)C(=O)N[C@H](C(=O)N[C@@H](CCCNC(N)=O)C(=O)N[C@@H](C)C(=O)O)[C@@H](C)O)C(C)C)C(C)C` [GK 365-378] (H-DIV[Cit]RACESVST[Cit]A-OH; N-terminus and C-terminus assumed) showed an IC50 greater than 50 µM. `CC(C)C[C@H](NC(=O)[C@H](CCCNC(N)=O)NC(=O)[C@H](CCCNC(=N)N)NC(=O)[C@@H](NC(=O)[C@H](CO)NC(=O)[C@H](C)NC(=O)[C@H](Cc1c[nH]cn1)NC(=O)[C@H](Cc1ccccc1)NC(=O)[C@H](CCCNC(N)=O)NC(=O)[C@H](CCC(=O)O)NC(=O)[C@H](CCCCN)NC(=O)[C@H](Cc1ccccc1)NC(=O)[C@H](CO)NC(=O)[C@@H]1CCCN1C(=O)[C@@H](N)Cc1c[nH]cn1)C(C)C)C(=O)O` [GK 416-439] (H-HPSFKE[Cit]FHASVR[Cit]L-OH; N-terminus and C-terminus assumed) gave an IC50 greater than 50 µM. With `CC[C@H](C)[C@H](NC(=O)[C@H](CCCNC(N)=O)NC(=O)[C@H](CCSC)NC(=O)[C@@H](NC(=O)[C@H](CC(=O)O)NC(=O)[C@H](CCC(=O)O)NC(=O)[C@@H](N)CO)C(C)C)C(=O)N[C@H](C(=O)N[C@H](C(=O)NCC(=O)N[C@H](C(=O)N[C@@H](CC(=O)O)C(=O)NCC(=O)N[C@@H](CO)C(=O)N[C@H](C(=O)O)C(C)C)C(C)C)C(C)C)[C@@H](C)O` [GK 398-412] (H-SEDVM[Cit]ITVGVDGSV-OH; N-terminus and C-terminus assumed) the IC50 was greater than 50 µM. `CC(C)C[C@H](N)C(=O)N1CCC[C@H]1C(=O)N[C@H](C(=O)N[C@@H](Cc1ccc(O)cc1)C(=O)N[C@H](C(=O)N[C@@H](CCCNC(N)=O)C(=O)N[C@@H](CO)C(=O)N[C@H](C(=O)N1CCC[C@H]1C(=O)N[C@@H](CCC(=O)O)C(=O)NCC(=O)N[C@@H](CO)C(=O)N[C@@H](CCC(=O)O)C(=O)N[C@H](C(=O)NCC(=O)O)C(C)C)[C@@H](C)O)C(C)C)[C@@H](C)O` [GK 58-72] (H-LPTYV[Cit]STPEGSEVG-OH) gave an IC50 of 30.9 µM. With `CSCC[C@H](NC(=O)[C@H](CCCCN)NC(=O)[C@@H](NC(=O)[C@@H](N)CO)C(C)C)C(=O)N[C@@H](CC(C)C)C(=O)N1CCC[C@H]1C(=O)N[C@H](C(=O)N[C@@H](Cc1ccc(O)cc1)C(=O)N[C@H](C(=O)N[C@@H](CCCNC(N)=O)C(=O)N[C@@H](CO)C(=O)N[C@H](C(=O)N1CCC[C@H]1C(=O)N[C@@H](CCC(=O)O)C(=O)NCC(=O)O)[C@@H](C)O)C(C)C)[C@@H](C)O` [GK 54-68] (H-SVKMLPTYV[Cit]STPEG-OH; N-terminus and C-terminus assumed) the IC50 was greater than 50 µM. With `CC(C)C[C@H](NC(=O)[C@H](CCC(N)=O)NC(=O)[C@H](CCC(=O)O)NC(=O)[C@H](CO)NC(=O)[C@H](C)NC(=O)[C@H](CCC(=O)O)NC(=O)CNC(=O)[C@H](Cc1c[nH]cn1)NC(=O)[C@H](Cc1ccccc1)NC(=O)[C@H](CC(C)C)NC(=O)[C@H](CC(C)C)NC(=O)[C@@H](N)CC(N)=O)C(=O)N[C@@H](CCCNC(N)=O)C(=O)N[C@H](C(=O)N[C@@H](CCCNC(=N)N)C(=O)O)[C@@H](C)O` [GK 313-327] (H-NLLFHGEASEQL[Cit]TR-OH; N-terminus and C-terminus assumed) the IC50 was greater than 50 µM. Compound `CSCC[C@H](NC(=O)[C@H](Cc1ccc(O)cc1)NC(=O)[C@H](CCCCN)NC(=O)CNC(=O)CN)C(=O)NCC(=O)N[C@@H](CCC(=O)O)C(=O)N[C@@H](CC(C)C)C(=O)N[C@H](C(=O)N[C@@H](CCCNC(N)=O)C(=O)N[C@@H](CC(C)C)C(=O)N[C@H](C(=O)N[C@@H](CC(C)C)C(=O)N[C@@H](CC(C)C)C(=O)N[C@@H](CCCNC(=N)N)C(=O)O)C(C)C)C(C)C` [GK 294-308] (H-GGKYMGELV[Cit]LVLLR-OH) has an IC50 of 4.3 µM.

Same assay, conditions: Table 1; competition with biotinylated HA306-318 reference peptide at 0.02 μM in DR0401-coated wells; europium-streptavidin time resolved fluorescence; concentration that displaces half of the reference peptide; read-out: IC50 (binding to DR0401)
`CC[C@H](C)[C@H](NC(=O)[C@H](CCSC)NC(=O)[C@@H](NC(=O)[C@H](C)NC(=O)[C@@H](NC(=O)[C@@H](NC(=O)[C@H](CC(=O)O)NC(=O)[C@H](CC(N)=O)NC(=O)[C@@H](NC(=O)[C@H](CCSC)NC(=O)[C@H](C)NC(=O)[C@@H](NC(=O)[C@@H](N)C(C)C)C(C)C)C(C)C)[C@@H](C)O)C(C)C)[C@@H](C)O)C(=O)N[C@@H](CO)C(=O)N[C@@H](CS)C(=O)N[C@@H](Cc1ccc(O)cc1)C(=O)O` [GK 199] (H-VVAMVNDTVATMISCY-OH) gave an IC50 of 2.5 µM. With `CC(C)C[C@H](NC(=O)[C@H](CC(C)C)NC(=O)[C@H](Cc1ccccc1)NC(=O)[C@H](CCC(=O)O)NC(=O)[C@H](CC(=O)O)NC(=O)[C@@H](N)CC(C)C)C(=O)N[C@@H](CCC(=O)O)C(=O)N[C@@H](Cc1ccc(O)cc1)C(=O)N[C@@H](CC(=O)O)C(=O)N[C@@H](CCCNC(=N)N)C(=O)N[C@@H](CC(C)C)C(=O)N[C@H](C(=O)N[C@@H](CC(=O)O)C(=O)N[C@@H](CCC(=O)O)C(=O)N[C@@H](CO)C(=O)O)C(C)C` [GK 266] (H-LDEFLLEYDRLVDES-OH) the IC50 was 5.6 µM.
